In patent US20140296212A1, “SUBSTITUTED PHENOXYPROPYLCYCLOAMINE DERIVATIVES AS HISTAMINE-3 (H3) RECEPTOR LIGANDS” (CEPHALON, INC., priority 2009, published 2014):

Legend:
human H3 receptor = target: T1, human H3 receptor (Homo sapiens, UniProt Q9Y5N1); experiment: Human H3 radioligand binding ([3H]-N-alpha-methylhistamine, SPA); details: membranes of CHO cells expressing human H3
T1 construct: expressed in transfected cells
How it was run: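 Membranes from H3-expressing cells (10 μg protein/well) in 50 mM Tris HCl pH 7.4, 5 mM MgCl2, 0.1% BSA with ~1 nM [3H]-N-alpha-methylhistamine and compound (0.01 nM–30 μM), SPA beads, 4 h, room temperature, dark. Non-specific binding defined with 10 μM clobenpropit; bound radioligand read by scintillation counting.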

[1] = target: T2, rat histamine H3 receptor (Rattus norvegicus, UniProt Q9QYN8); experiment: Rat H3 radioligand binding ([3H]-N-alpha-methylhistamine, SPA); details: membranes of CHO-A3 cells expressing rat H3; [3H]-N-alpha-methylhistamine; read-out: Rat H3 Ki
T2 construct: encoding the entire 445-amino-acid rat histamine H3 receptor; expressed in transfected cells
How it was run: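 Membranes from CHO-A3 cells stably expressing full-length rat H3 receptor (445 aa) incubated with ~1 nM [3H]-N-alpha-methylhistamine and compound (0.01 nM–30 μM) in 50 mM Tris HCl pH 7.4, 5 mM MgCl2, 0.1% BSA, 4 h, room temperature; SPA bead read-out. Non-specific binding defined with 10 μM clobenpropit.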

T2 sequence (Q9QYN8 whole entry): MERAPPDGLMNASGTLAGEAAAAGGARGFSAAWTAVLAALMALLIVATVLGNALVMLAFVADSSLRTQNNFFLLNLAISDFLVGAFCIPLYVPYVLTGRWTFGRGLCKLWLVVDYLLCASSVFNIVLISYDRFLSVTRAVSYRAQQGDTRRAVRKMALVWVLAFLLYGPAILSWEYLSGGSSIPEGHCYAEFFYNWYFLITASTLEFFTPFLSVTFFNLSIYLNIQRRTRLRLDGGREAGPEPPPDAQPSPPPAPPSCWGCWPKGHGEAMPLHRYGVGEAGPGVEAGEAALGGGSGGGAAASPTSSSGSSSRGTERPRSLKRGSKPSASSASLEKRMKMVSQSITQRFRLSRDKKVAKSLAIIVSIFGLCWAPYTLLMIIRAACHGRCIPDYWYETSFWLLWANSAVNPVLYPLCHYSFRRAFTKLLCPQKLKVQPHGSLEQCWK
T1 sequence (Q9Y5N1 whole entry): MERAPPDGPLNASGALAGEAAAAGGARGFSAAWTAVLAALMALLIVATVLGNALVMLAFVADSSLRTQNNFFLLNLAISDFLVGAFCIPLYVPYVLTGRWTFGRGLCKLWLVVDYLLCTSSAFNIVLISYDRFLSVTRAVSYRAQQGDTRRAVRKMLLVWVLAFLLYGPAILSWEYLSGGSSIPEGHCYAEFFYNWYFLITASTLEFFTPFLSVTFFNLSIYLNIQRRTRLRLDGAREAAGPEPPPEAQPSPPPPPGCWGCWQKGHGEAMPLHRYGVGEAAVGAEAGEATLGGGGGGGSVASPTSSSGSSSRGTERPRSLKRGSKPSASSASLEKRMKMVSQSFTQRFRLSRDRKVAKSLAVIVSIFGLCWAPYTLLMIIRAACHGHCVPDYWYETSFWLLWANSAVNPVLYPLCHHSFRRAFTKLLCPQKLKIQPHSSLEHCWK

| SMILES | Ki (human H3 receptor) | Ki [1] | melting point |
| --- | --- | --- | --- |
| C[C@@H]1CCCN1CCCOc1ccc(C(=O)CN2CCN(c3ccc(C(F)(F)F)cc3)CC2)cc1 [Example 105, 1-{4-[3-((R)-2-Methyl-pyrrolidin-1-yl)-propoxy]-phenyl}-2-[4-(4-trifluoromethyl-phenyl)-piperazin-1-yl]-ethanone] | 0.1 to 100 nM | 0.1 to 100 nM | 230 to 233 °C |
| Cc1cc(C(=O)CN2CCN(C(=O)c3ccccc3)CC2)cc(C)c1OCCCN1CCC[C@H]1C [Example 106, 2-(4-Benzoyl-piperazin-1-yl)-1-{3,5-dimethyl-4-[3-((R)-2-methyl-pyrrolidin-1-yl)-propoxy]-phenyl}-ethanone] | 0.1 to 100 nM | 101 to 500 nM | 110 to 120 °C |
| C[C@@H]1CCCN1CCCOc1ccc(C(=O)CN2CCCc3ccccc32)cc1 [Example 108, 2-(3,4-Dihydro-2H-quinolin-1-yl)-1-{4-[3-((R)-2-methyl-pyrrolidin-1-yl)-propoxy]-phenyl}-ethanone] | 0.1 to 100 nM | 0.1 to 100 nM | 166 to 168 °C |
| C[C@@H]1CCCN1CCCOc1ccc(C(=O)CN2CCN(C(=O)c3ccc4ccccc4c3)CC2)cc1 [Example 109, 1-{4-(3-((R)-2-Methyl-pyrrolidin-1-yl)-propoxy]-phenyl}-2-[4-(naphthalene-2-carbonyl)-piperazin-1-yl]-ethanone] | 0.1 to 100 nM | 0.1 to 100 nM | 100.5 to 109.5 °C |
| CC(=O)N1CCN(CC(=O)c2cc(Cl)c(OCCCN3CCC[C@H]3C)c(Cl)c2)CC1 [Example 110, 2-(4-Acetyl-piperazin-1-yl)-1-{3,5-dichloro-4-[3-((R)-2-methyl-pyrrolidin-1-yl)-propoxy]-phenyl}-ethanone] | 101 to 500 nM | 101 to 500 nM | 115 °C |
| C[C@@H]1CCCN1CCCOc1c(Cl)cc(C(=O)CN2CCN(c3ncccn3)CC2)cc1Cl [Example 111, 1-{3,5-Dichloro-4-[3-((R)-2-methyl-pyrrolidin-1-yl)-propoxy]-phenyl}-2-(4-pyrimidin-2-yl-piperazin-1-yl)-ethanone] | 0.1 to 100 nM | 101 to 500 nM | 177 °C |
| C[C@@H]1CCCN1CCCOc1ccc(C(=O)CN2CCN(C(=O)c3ccccc3)CC2)cc1Cl [Example 113, 2-(4-Benzoyl-piperazin-1-yl)-1-{3-chloro-4-[3-((R)-2-methyl-pyrrolidin-1-yl)-propoxy]-phenyl}-ethanone] | 0.1 to 100 nM | 0.1 to 100 nM | 130 to 137 °C |
| C[C@@H]1CCCN1CCCOc1ccc(C(=O)CN2CCCCc3ccccc32)cc1 [Example 114, 1-{4-[3-((R)-2-Methyl-pyrrolidin-1-yl)-propoxy]-phenyl}-2-(2,3,4,5-tetrahydro-benzo[b]azepin-1-yl)-ethanone] | 0.1 to 100 nM | 0.1 to 100 nM | 90 to 96 °C |
| CCOC(=O)N1CCN(CC(=O)c2ccc(OCCCN3CCC[C@H]3C)cc2)CC1 [Example 115, 4-(2-{4-[3-((R)-2-Methyl-pyrrolidin-1-yl)-propoxy]-phenyl}-2-oxo-ethyl)-piperazine-1-carboxylic acid ethyl ester] | 0.1 to 100 nM | 0.1 to 100 nM | 218 to 219 °C |
| C[C@@H]1CCCN1CCCOc1ccc(C(=O)CN2CCN(c3ccccn3)CC2)cc1 [Example 116, 1-{4-[3-((R)-2-Methyl-pyrrolidin-1-yl)-propoxy]-phenyl}-2-(4-pyridin-2-yl-piperazin-1-yl)-ethanone] | 0.1 to 100 nM | 0.1 to 100 nM | 239 to 242 °C |
| C[C@@H]1CCCN1CCCOc1ccc(C(=O)CN2CCN(C(=O)OC(C)(C)C)CC2)cc1 [Example 117, 4-(2-{4-[3-((R)-2-Methyl-pyrrolidin-1-yl)-propoxy]-phenyl}-2-oxo-ethyl)-piperazine-1-carboxylic acid tert-butyl ester] | 0.1 to 100 nM | 0.1 to 100 nM | 198 to 199 °C |
| CC(C)C(=O)N1CCN(CC(=O)c2ccc(OCCCN3CCC[C@H]3C)c(Cl)c2)CC1 [Example 118, 1-[4-(2-{3-Chloro-4-[3-((R)-2-methyl-pyrrolidin-1-yl)-propoxy]-phenyl}-2-oxo-ethyl)-piperazin-1-yl]-2-methyl-propan-1-one] | 0.1 to 100 nM | 0.1 to 100 nM | 140 °C (dec.) |
| C[C@@H]1CCCN1CCCOc1ccc(C(=O)CN2CCN(c3ncccn3)CC2)cc1F [Example 119, 1-{3-Fluoro-4-[3-((R)-2-methyl-pyrrolidin-1-yl)-propoxy]-phenyl}-2-(4-pyrimidin-2-yl-piperazin-1-yl)-ethanone] | 0.1 to 100 nM | 0.1 to 100 nM | 219 °C |
| C[C@@H]1CCCN1CCCOc1ccc(C(=O)CN2CCN(C(=O)c3ccccc3)CC2)cc1F [Example 120, 2-(4-Benzoyl-piperazin-1-yl)-1-{3-fluoro-4-[3-((R)-2-methyl-pyrrolidin-1-yl)-propoxy]-phenyl}-ethanone] | 0.1 to 100 nM | 0.1 to 100 nM | 96 °C |
| CC(C)C(=O)N1CCN(CC(=O)c2ccc(OCCCN3CCC[C@H]3C)c(F)c2)CC1 [Example 121, 1-[4-(2-{3-Fluoro-4-[3-((R)-2-methyl-pyrrolidin-1-yl)-propoxy]-phenyl}-2-oxoethyl)-piperazin-1-yl]-2-methyl-propan-1-one] | 0.1 to 100 nM | 0.1 to 100 nM | 75 °C |
| C[C@@H]1CCCN1CCCOc1ccc(C(=O)CN2CCN(S(C)(=O)=O)CC2)cc1F [Example 122, 1-{3-Fluoro-4-[3-((R)-2-methyl-pyrrolidin-1-yl)-propoxy]-phenyl}-2-(4-methanesulfonyl-piperazin-1-yl)-ethanone] | 0.1 to 100 nM | 0.1 to 100 nM | 86 °C |
| C[C@@H]1CCCN1CCCOc1ccc(C(=O)CN2CCN(C(=O)N(C)C)CC2)cc1F [Example 123] | 0.1 to 100 nM | 0.1 to 100 nM | 81 °C |
| C[C@@H]1CCCN1CCCOc1ccc(C(=O)CN2CCN(C(=O)c3cc4ccccc4s3)CC2)cc1 [Example 124, 2-[4-(Benzo[b]thiophene-2-carbonyl)-piperazin-1-yl]-1-{4-[3-((R)-2-methyl-pyrrolidin-1-yl)-propoxy]-phenyl}-ethanone] | 0.1 to 100 nM | 0.1 to 100 nM | 214 to 217 °C |
| C[C@@H]1CCCN1CCCOc1ccc(C(=O)CN2CCN(c3ncccn3)CC2)cc1Cl [Example 125, 1-{3-Chloro-4-[3-((R)-2-methyl-pyrrolidin-1-yl)-propoxy]-phenyl}-2-(4-pyrimidin-2-yl-piperazin-1-yl)-ethanone] | 0.1 to 100 nM | 101 to 500 nM | 112 to 114 °C |
| C[C@@H]1CCCN1CCCOc1ccc(C(=O)CN2CCN(C(=O)c3ccc(F)cc3F)CC2)cc1 [Example 126, 2-[4-(2,4-Difluoro-benzoyl)-piperazin-1-yl]-1-{4-[3-((R)-2-methyl-pyrrolidin-1-yl)-propoxy]-phenyl}-ethanone] | 0.1 to 100 nM | 0.1 to 100 nM | 115 to 117 °C |
| COC(=O)N1CCN(CC(=O)c2ccc(OCCCN3CCC[C@H]3C)c(F)c2)CC1 [Example 127, 4-(2-{3-Fluoro-4-[3-((R)-2-methyl-pyrrolidin-1-yl)-propoxy]-phenyl}-2-oxo-ethyl)-piperazine-1-carboxylic acid methyl ester] | 0.1 to 100 nM | 0.1 to 100 nM | 236 °C |
| C[C@@H]1CCCN1CCCOc1ccc(C(=O)CN2CCN(C(=O)Oc3ccccc3)CC2)cc1 [Example 128, 4-(2-{4-[3-((R)-2-Methyl-pyrrolidin-1-yl)-propoxy]-phenyl}-2-oxo-ethyl)-piperazine-1-carboxylic acid phenyl ester] | 0.1 to 100 nM | 0.1 to 100 nM | 194 to 199 °C |
| C[C@@H]1CCCN1CCCOc1ccc(C(=O)CN2CCN(C(=O)c3ccc(Cl)c(Cl)c3)CC2)cc1 [Example 129, 2-[4-(3,4-Dichloro-benzoyl)-piperazin-1-yl]-1-{4-[3-((R)-2-methyl-pyrrolidin-1-yl)-propoxy]-phenyl}-ethanone] | 0.1 to 100 nM | 0.1 to 100 nM | 88 to 90.5 °C |
| Cc1cc(C(=O)CN2CCN(c3ncccn3)CC2)ccc1OCCCN1CCC[C@H]1C [Example 130, 1-{3-Methyl-4-[3-((R)-2-methyl-pyrrolidin-1-yl)-propoxy]-phenyl}-2-(4-pyrimidin-2-yl-piperazin-1-yl)-ethanone] | 0.1 to 100 nM | 0.1 to 100 nM | 231.5 to 235 °C |
| COC(=O)N1CCN(CC(=O)c2ccc(OCCCN3CCC[C@H]3C)c(Cl)c2)CC1 [Example 132, 4-(2-{3-Chloro-4-[3-((R)-2-methyl-pyrrolidin-1-yl)-propoxy]-phenyl}-2-oxo-ethyl)-piperazine-1-carboxylic acid methyl ester] | 0.1 to 100 nM | 101 to 500 nM | 122 to 124 °C |
| C[C@@H]1CCCN1CCCOc1ccc(C(=O)CN2CCC(F)(F)CC2)cc1Cl [Example 134, 1-{3-Chloro-4-[3-((R)-2-methyl-pyrrolidin-1-yl)-propoxy]-phenyl}-2-(4,4-difluoro-piperidin-1-yl)-ethanone] | 0.1 to 100 nM | 101 to 500 nM | 130 to 143 °C |
| CC(=O)N1CCN(CC(=O)c2ccc(OCCCN3CCC[C@H]3C)c(Cl)c2)CC1 [Example 135, 2-(4-Acetyl-piperazin-1-yl)-1-{3-chloro-4-[3-((R)-2-methyl-pyrrolidin-1-yl)-propoxy]-phenyl}-ethanone] | 0.1 to 100 nM | 0.1 to 100 nM | 113 to 128 °C |
